# Experimental data: patent publication US8815859B2, “Substituted pyrazin-2-ones and substituted 5,6,7,8-tetrahydroquinoxalin-2-ones and methods of use thereof” (Merck Patent GmbH, priority 2008, dated 2014)
# Assays:
# INS-1 cells = assay: Insulin secretion assay in INS-1 cells (glucose at 4.2 mM); type: cell-based, rat; conditions: glucose 4.2 mM, 1 h incubation, control = glucose 4.2 mM; for Insulin secretion, % of ctrl at 10 μM of cpd: 10 μM of compound; for Insulin secretion, % of ctrl at 50 μM of cpd: 50 μM of compound
# Experimental: INS-1 cells were cultured in complete medium, RPMI1640 containing 1 mM sodium pyruvate, 50 μM 2-mercaptoethanol, 2 mM glutamine, 10 mM HEPES, 100 IU/mL penicillin, and 100 μg/mL streptomycin (CM), supplemented with 10 mM glucose, and 10% (vol/vol) heat-inactivated fetal calf serum (FCS), as described by Asfari et al. (Endocrinology 130: 167-178, 1992).
# INS-1 cells were plated and cultured in 48-well plates. After 2 days of culture, the medium was removed and cells were cultured for 24 h with a medium change to 5 mM glucose, 1% FCS. The cells were then washed with Krebs-Ringer Bicarbonate HEPES buffer (KRBH; 135 mM NaCl; 3.6 mM KCl; 5 mM NaHCO3; 0.5 mM NaH2PO4; 0.5 mM MgCl2; 1.5 mM CaCl2 and 10 mM HEPES; pH 7.4) 0,1% BSA containing 2.8 mM glucose and preincubated for 30 min at 37° C. in the same buffer. The cells were then washed twice and incubated for 1 h in KRBH 0.1% BSA containing 4.2 mM glucose and different concentrations of the tested molecule. Insulin concentration in the collected supernatants was measured with ELISA using rat insulin antibody (Insulin Rat Elit PLUS, cat. ref 10-1145-01).
# Insulin secretion results are expressed in % of control (glucose 4.2 mM).
# Insulin Secretion in INS-1 Cells (Glucose at 4.2 mM)
Structure (SMILES),"Insulin secretion, % of ctrl at 10 μM of cpd (INS-1 cells)","Insulin secretion, % of ctrl at 50 μM of cpd (INS-1 cells)",melting point [°C]
"CC(C)Cn1ccnc(-c2ccc(Cl)cc2)c1=O [Example 9-7, 3-(4-chlorophenyl)-1-isobutylpyrazin-2(1H)-one]",140 % of ctrl,338 % of ctrl,–
"CCn1ccnc(-c2ccc(C(=O)O)cc2)c1=O [Example 5-15, 4-(4-ethyl-3-oxo-3,4-dihydropyrazin-2-yl)benzoic acid]",–,–,170
"O=c1c(-c2ccc(Cl)cc2)nccn1CC1CC1 [Example 9-8, 3-(4-chlorophenyl)-1-(cyclopropylmethyl)pyrazin-2(1H)-one]",172 % of ctrl,333 % of ctrl,–
"CCn1ccnc(-c2ccc(S(C)(=O)=O)cc2)c1=O [Example 5-2, 1-ethyl-3-[4-(methylsulfonyl)phenyl]pyrazin-2(114)-one]",–,–,108 to 110
"CCn1ccnc(-c2ccc3c(c2)OCO3)c1=O [Example 5-5, 3-(1,3-benzodioxol-5-yl)-1-ethylpyrazin-2(1H)-one]",158 % of ctrl,204 % of ctrl,–
"CCn1ccnc(-c2ccc3cc[nH]c3c2)c1=O [Example 5-16, 1-ethyl-3-(1H-indol-6-yl)pyrazin-2(1H)-one]",–,–,170
"CCCn1ccnc(-c2ccccc2)c1=O [Example 9-3, 3-phenyl-1-propylpyrazin-2(1H)-one]",145 % of ctrl,182 % of ctrl,–
"CCn1c2c(nc(-c3ccc(Cl)cc3)c1=O)CCCC2 [Example 9, 3-(4-chlorophenyl)-1-ethyl-5,6,7,8-tetrahydroquinoxalin-2(1H)-one]",343 % of ctrl,371 % of ctrl,110 to 113
